We go through 7 compounds from EP0175180A1, “Histargin-related compounds, a process for their preparation and their use as medicaments” (MICROBIAL CHEMISTRY RESEARCH FOUNDATION, priority 1984, dated 1986).

Bounds are passed on as bounds.

Data set [1] deals with T1, angiotensin converting enzyme (Bos taurus, UniProt P12820).
T1 construct: angiotensin converting enzyme partially purified from a bovine lung; from tissue; host or cells: bovine lung
T1 sequence (P12820 29-1306): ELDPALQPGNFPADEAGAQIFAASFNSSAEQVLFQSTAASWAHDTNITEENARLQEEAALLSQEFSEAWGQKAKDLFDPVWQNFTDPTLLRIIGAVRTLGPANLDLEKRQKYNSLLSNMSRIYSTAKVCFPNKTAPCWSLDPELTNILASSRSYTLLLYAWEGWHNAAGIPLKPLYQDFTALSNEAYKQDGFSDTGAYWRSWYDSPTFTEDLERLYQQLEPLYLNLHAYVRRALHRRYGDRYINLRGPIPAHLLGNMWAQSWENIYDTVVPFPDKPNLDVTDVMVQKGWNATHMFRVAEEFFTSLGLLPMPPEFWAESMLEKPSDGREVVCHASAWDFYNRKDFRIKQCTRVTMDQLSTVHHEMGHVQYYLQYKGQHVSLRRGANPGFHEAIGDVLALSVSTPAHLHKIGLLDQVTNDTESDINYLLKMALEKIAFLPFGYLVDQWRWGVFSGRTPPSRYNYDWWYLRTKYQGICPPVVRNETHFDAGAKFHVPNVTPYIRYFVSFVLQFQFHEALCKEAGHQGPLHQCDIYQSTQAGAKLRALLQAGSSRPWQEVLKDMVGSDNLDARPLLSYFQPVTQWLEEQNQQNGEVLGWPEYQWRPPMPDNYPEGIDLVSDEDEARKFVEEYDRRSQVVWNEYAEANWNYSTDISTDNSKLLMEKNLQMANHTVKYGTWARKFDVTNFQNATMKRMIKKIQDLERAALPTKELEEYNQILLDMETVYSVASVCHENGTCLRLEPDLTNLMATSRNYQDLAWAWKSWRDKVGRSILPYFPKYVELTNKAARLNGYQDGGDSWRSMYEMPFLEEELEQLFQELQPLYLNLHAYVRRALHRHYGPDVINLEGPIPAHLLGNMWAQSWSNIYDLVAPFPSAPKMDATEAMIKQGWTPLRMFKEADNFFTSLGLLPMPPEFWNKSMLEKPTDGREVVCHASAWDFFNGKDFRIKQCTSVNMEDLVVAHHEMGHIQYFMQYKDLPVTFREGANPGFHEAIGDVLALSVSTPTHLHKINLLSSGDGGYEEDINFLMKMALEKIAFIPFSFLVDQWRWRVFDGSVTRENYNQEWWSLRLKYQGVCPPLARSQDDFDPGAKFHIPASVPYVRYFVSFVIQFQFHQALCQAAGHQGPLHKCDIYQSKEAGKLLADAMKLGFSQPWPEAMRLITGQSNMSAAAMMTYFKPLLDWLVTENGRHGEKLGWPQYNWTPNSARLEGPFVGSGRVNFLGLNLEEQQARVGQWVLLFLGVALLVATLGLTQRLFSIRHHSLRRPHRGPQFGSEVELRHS
The data set is described as follows: Inhibition of the action of angiotensin converting enzyme. It counts as biochemical. The settings on record: enzyme partially purified from a bovine lung, 37°C, 30 minutes; read-out: IC50 (50% inhibition concentration) (converted). How it is done:
The inhibition of the action of angiotensin converting enzyme was determined by an inproved version of the method for determination of the activity of angiotensin converting enzyme described in M. Hayakari et al., Analytical Biochemistry, 84, 361 - 369 (1978). The method proceeds as follows: Substrate fibril-L-histidyl-L-leucine was dissolved at a concentration of 5 mg/mt in Tris-HCℓ buffer solution (0.5 M, pH 8.0) containing 0.3 M NaCℓ. A mixture of this solution (0.05 mℓ) and 0.40 mℓ of a solution containing a test compound was heated at 37°C for 3 minutes. To the heated solution, 0.05 ml of a solution containing angiotensin converting enzyme partially purified from a bovine lung was added, and the mixture was subjected to reaction at 37°C for 30 minutes. The reaction was quenched by adding 0.03 mℓ of 1 N caustic soda. […] The mixture was left at room temperature for 15 minutes and the absorbance (a) at 382 nm was measured. The absorbance (b) of a control containing no test compound was also measured by repeating the same procedure. Blank tests were also conducted to determine the corresponding absorbances (a') and (b'). […] The percent inhibition of the action of angiotensin converting enzyme was calculated by the formula: [formula]

The next data set deals with rats. Description: Acute toxicity test by intraperitoneal administration. It counts as in vivo. An excerpt: Each of the compounds in accordance with the present invention has low toxicity and can safely be used as a medicine. The results of an acute toxicity test conducted by intraperitoneal administration of rats with compound Nos. la to 5a are summarized in Table 5.

The next data set addresses T2, carboxypeptidase A (Bos taurus, UniProt P00730).
T2 construct: carboxypeptidase A purified from bovine pancreas; purchased Sigma Chemical Co; host or cells: bovine pancreas
T2 sequence (P00730 111-419): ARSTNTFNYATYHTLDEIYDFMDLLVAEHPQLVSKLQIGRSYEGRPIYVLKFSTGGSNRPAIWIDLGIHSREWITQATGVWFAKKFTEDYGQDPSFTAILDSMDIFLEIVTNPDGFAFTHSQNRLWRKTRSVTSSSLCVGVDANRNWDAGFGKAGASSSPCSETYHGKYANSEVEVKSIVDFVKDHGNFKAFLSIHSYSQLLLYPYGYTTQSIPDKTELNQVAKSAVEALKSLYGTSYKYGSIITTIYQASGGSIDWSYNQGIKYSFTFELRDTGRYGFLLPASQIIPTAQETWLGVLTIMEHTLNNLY
The data set is described as follows: Inhibition of the action of carboxypeptidase A. The settings on record: carboxypeptidase A purified from bovine pancreas, 37°C, 30 minutes, pH 7.5; read-out: CP-A inhibition IC50 (converted). The format is biochemical. On the procedure: (2) Inhibition of the action of carboxypeptidase A The inhibition of the action of carboxypeptidase A was determined by the method described in T. Tanaka et al., The Journal of Antibiotics, 37, 682 - 684 (1984). The method proceeds as follows: A mixture of 0.05 mℓ of 0.01 M fibril-L-phenylalanine (product of Sigma Chemical Co.) with 0.25 mℓ of 0.05 M Tris-HCℓ buffer solution (pH 7.5) containing 0.9 M NaCℓ. and 0.15 mℓ of a solution containing a teat compound was heated at 37°C for 3 minutes. To the heated solution, 0.05 mℓ of a diluted aqueous solution of carboxypeptidase A purified from bovine pancreas (product of Sigma Chemical Co.) which also contained 1 mg/mℓ of purified bovine albumin was added and the mixture was enbjected to reaction at 37°C for 30 minutes. The reaction was quenched by adding 0.03 mℓ of 1 M caustic soda. Fifteen minutes later, 2 mℓ of 0.06 M sodium phosphate buffer solution (pH 7.2) was added to the reaction mixture, and color reaction was performed by addition of 2 mℓ of 1% cyanuric chloride in methyl cellosolve. The mixture was left at room temperature for 15 minutes and the absorbance (a) at 382 nm was measured. The absorbance (b) of a control containing no test compound was also measured by repeating the same procedure. Blank tests were also conducted to determine the corresponding absorbances (a') and (b'). In each blank test, the color reaction was performed by adding the enzyme solution after caustic soda so that no enzymatic reaction would take place. The percent inhibition of the action of carboxypeptidase A was calculated by the formula: [formula]

The next data set addresses T3, carboxypeptidase B (Sus scrofa, UniProt P09955).
T3 construct: carboxypeptidase B purified from swine pancreas; purchased C; F. Boehringer & Soehne GmbH, Mannheim; host or cells: swine pancreas
T3 sequence (P09955 111-416): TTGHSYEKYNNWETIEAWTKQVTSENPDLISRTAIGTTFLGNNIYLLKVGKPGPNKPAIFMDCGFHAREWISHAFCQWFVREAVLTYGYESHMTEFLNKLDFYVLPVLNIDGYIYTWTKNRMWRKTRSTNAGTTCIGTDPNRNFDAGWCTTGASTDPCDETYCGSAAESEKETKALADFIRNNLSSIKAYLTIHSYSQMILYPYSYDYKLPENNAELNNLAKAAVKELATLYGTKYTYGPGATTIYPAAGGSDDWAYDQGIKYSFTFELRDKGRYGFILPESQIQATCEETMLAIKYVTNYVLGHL
The data set is described as follows: Inhibition of the action of carboxypeptidase B. The format is biochemical. The settings on record: carboxypeptidase B purified from swine pancreas, 37°C, 30 minutes, pH 8.0; read-out: CP-B inhibition IC50 (converted). How it is done:
The inhibition of the action of carboxypeptidase B was determined by an improved version of the method for determination of the activity of angiotensin converting enzyme described in M. Hayakari et al., Analytical Biochemistry, 84, 361 - 369 (1978). The method proceeds as follows: A mixture of 0.05 mℓ of 0.05 M fibril-L-lysine (prepared by Tanpakushitsu Kenkyu Shoreikai) with 0.25 mℓ of 0.05 M Tris-HCℓ buffer solution (pH 8.0) and 0.15 mℓ of a solution containing a test compound was heated at 37°C for 3 minutes. To the heated solution, 0.05 mℓ of an aqueous solution containing 1 ug/mℓ of carboxypeptidase B purified from swine pancreas (product of C. F. Boehringer G Sohne GmbH, Mannheim) and 1 mg/mℓ of bovine albumin was added, and the mixture was subjected to reaction at 37°C for 30 minutes. The reaction was quenched by adding 0.03 mℓ of 1 N caustic soda. Fifteen minutes later, 2 mℓ of 0.05 M sodium phosphate buffer solution (pH 7.2) was added to the reaction mixture, and color reaction was performed by addition of 2 mℓ of 1% cyanuric chloride in methyl cellosolve. The mixture was left at room temperature for 15 minutes and the absorbance (a) at 382 nm was measured. The absorbance (b) of a control containing no test compound was also measured by repeating the same procedure. Blank tests were also conducted to determine the corresponding absorbances (a') and (b').
In each blank teat, the color reaction was performed by adding the enzyme solution after caustic soda so that no enzymatic reaction would take place. The percent inhibition of the action of carboxypeptidase B was calculated by the formula: [formula]

[2] abbreviates: intraperitoneal administration, rats, dose stated in each result.

In the case of `O=C(O)[C@H](Cc1c[nH]cn1)NCCN[C@@H](Cc1c[nH]cn1)C(=O)O` [1a, L-His-C2-L-His], the IC50 in data set [1] was 2.08 µM; at carboxypeptidase A, greater than 595 µM; at carboxypeptidase B it was 178 µM. In addition, the “Test results (acute toxicity)” value with rats (rat, in vivo, ip) is “No toxicity observed upon administration of 400 mg/kg”.
As for `O=C(O)C[C@H](NCCN[C@@H](Cc1c[nH]cn1)C(=O)O)C(=O)O` [5a, L-His-C2-L-Asp], the IC50 in data set [1] is 1.59 µM; at carboxypeptidase A, greater than 636 µM; at carboxypeptidase B it was greater than 636 µM. Moreover, the “Test results (acute toxicity)” value in the data set on rats (rat, in vivo, ip) was “No toxicity observed upon administration of 400 mg/kg”.
Regarding `NCCCC[C@H](NCCN[C@@H](Cc1c[nH]cn1)C(=O)O)C(=O)O` [3a, L-His-C2-L-Lys], the “Test results (acute toxicity)” value in the data set with rats (setting [2]) is listed as “No toxicity observed upon administration of 400 mg/kg”. For the same compound, the IC50 on carboxypeptidase A and at carboxypeptidase B was greater than 611 µM each time.
Turning to `O=C(O)[C@H](Cc1c[nH]cn1)NCCN1CCC[C@H]1C(=O)O` [4a, L-His-C2-L-Pro], the “Test results (acute toxicity)” value in the data set with rats (setting [2]) is listed as “No toxicity observed upon administration of 400 mg/kg”. The IC50 on carboxypeptidase A and at carboxypeptidase B was greater than 675 µM in each case.
For `O=C(O)[C@H](Cc1ccccc1)NCCN[C@@H](Cc1c[nH]cn1)C(=O)O` [2a, L-His-C2-L-Phe], the “Test results (acute toxicity)” value in the data set with rats (setting [2]) is on record as “No toxicity observed upon administration of 100 mg/kg”. Also, the IC50 on carboxypeptidase A was 24.3 µM; at carboxypeptidase B, 185 µM.
For `CCOC(=O)[C@H](Cc1ccccc1)NCCN[C@@H](Cc1c[nH]cn1)C(=O)O` [7a, L-His-C2-L-Phe-OEt], the results for the IC50 at carboxypeptidase A and on carboxypeptidase B were 390 µM and greater than 534 µM, respectively.
For the compound `NCCC[C@H](NCCN[C@@H](Cc1c[nH]cn1)C(=O)O)C(=O)O` [6a, L-His-C2-L-Orn], the IC50 at carboxypeptidase A was greater than 638 µM; on carboxypeptidase B, 357 µM.
